The values below come from US20240316038A1, “APOL1 INHIBITORS AND METHODS OF USE” (Maze Therapeutics, Inc., priority 2021, published 2024).

The target in assay [1] is T1, APOL1 G2 (Homo sapiens, UniProt O14791, DEL388-389).
T1 construct: expressed in transfected cells; host or cells: HEK293 T-REx clonal lines: HEK T-REx/GCaMP6f/APOL1 G2 K6.3 in A1, HEK293/T-REx APOL1 G2/clone #2 in A2
T1 sequence (O14791 with tags, fused parts or gaps DEL388-389): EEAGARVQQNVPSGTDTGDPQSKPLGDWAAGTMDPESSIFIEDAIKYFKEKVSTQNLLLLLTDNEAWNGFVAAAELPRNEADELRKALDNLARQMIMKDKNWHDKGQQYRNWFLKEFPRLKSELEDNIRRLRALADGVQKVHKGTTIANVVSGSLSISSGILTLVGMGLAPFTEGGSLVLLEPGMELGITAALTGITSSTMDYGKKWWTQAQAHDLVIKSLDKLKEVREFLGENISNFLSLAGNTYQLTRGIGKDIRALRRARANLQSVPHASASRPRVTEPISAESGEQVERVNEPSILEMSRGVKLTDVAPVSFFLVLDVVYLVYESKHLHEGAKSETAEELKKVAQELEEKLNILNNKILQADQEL
As to the kind of experiment: APOL1 calcium transport inhibition assay (GCaMP6f calcium influx, FLIPR) in HEK T-REx/GCaMP6f/APOL1 G2 K6.3 cells. The format is cell-based. The note with it: inhibition of APOL1-mediated calcium influx; geometric mean of at least 2 assay runs, † = single assay run (technical duplicate). The protocol:
A HEK293 clonal cell line was generated to stably express GCaMP6f, a genetically encoded calcium indicator, and inducibly express APOL1 G2 (HEK T-REx/GCaMP6f/APOL1 G2 K6.3). Cells were maintained in the following standard complete medium: DMEM with 4.5 g/L glucose and sodium pyruvate (BioWhittaker, Lonza, BE12-614F), supplemented with 10% FBS Performance Plus (Gibco, 16000044), 1% penicillin-streptomycin (BioWhittaker, DE17-602E), 2 mM ultraglutamine-1 (BioWhittaker cat. BE 17-605/U1), 50 μg/mL Zeocin (InvivoGen, ant-zn), 2.5 μg/mL Blasticidin (InvivoGen, ant-bl-5), and 25 μg/mL Hygromycin (InvivoGen, ant-hg). Standard propagation conditions consisted of plating 9×10^6, 4×10^6, 2×10^6 cells in a T225 flasks to be processed after 2, 3, or 4 days, respectively.
A source plate was generated containing 20 serially diluted compounds in DMSO (duplicate 8-point dose response). Next, 0.8 μL of compounds were transferred from the source plate to a destination plate prefilled with 79.2 μL of Ca^2+ free Tyrode's buffer (130 mM NaCl, 5 mM KCl, 1 mM MgCl2, 5 mM NaHCO3, 20 mM HEPES at pH 7.4). The destination plate was placed on a plate shaker (5 seconds at 2000 rpm) to mix. […] All transfer and mixing steps were conducted with an CyBi®-Well dispenser.
Cells were split by gently washing with DPBS (Euroclone, ECB4004L), followed by a 5-minute incubation (humidified, 37° C. with 5% CO2) with trypsin-EDTA solution (Euroclone, ECB3052D). Detached cells were diluted with standard complete medium without selective agents, counted, and plated in a 384 MTP microplate (GR4332CPL, Twin Helix) (10,000 cells/well in 25 μl/well) using a MATRIX WellMate dispenser. Plates were placed into a humidified incubator (37° C. with 5% CO2) overnight. The following day, 20 μL of doxycycline (Sigma, D9891) at 20 ng/mL in standard complete medium was added to cells with a CyBi @Drop dispenser to induce APOL1 G2 expression. After a 6-hour incubation (humidified, 37° C. with 5% CO2), cells were washed 3 times with Ca^2+ free Tyrode's Buffer (130 mM NaCl, 5 mM KCl, 1 mM MgCl2, 5 mM NaHCO3, 20 mM HEPES at pH 7.4) using a BIOTEK Microplate washer, such that 10 μL of buffer remained in each well after the final wash. Assay plates were then stored at room temperature for 10 minutes. Next, 10 μL of diluted compounds were transferred to the assay plate from the 2× compound plate using a CyBi®-Well dispenser. Compound incubation was then carried out at room temperature for 10 minutes. The assay plate was transferred to the […] and 20 μL of 10 mM Ca^2+ (final concentration=5 mM) Tyrode's buffer was injected.
Table B1 below summarizes the data from this experiment. Unless otherwise specified, AC50 and values are reported as the geometric mean of at least 2 assay runs on separate days. Each run represents the average of a technical replicate, where each compound was assayed twice in the same plate. A superscript † symbol indicates a value from the average of a technical replicate from a single assay run, where each compound was assayed twice in the same plate.
The AC50 values in Table B1 below reflect the compound's ability to prevent calcium influx by inhibiting APOL1. […] Compounds in Table B1 are referred to by the corresponding Compound Number in Table 1, which is also referred to in the synthetic examples. When one or more of the numbered compounds are identified by stereochemistry (for example, (R)- or (S)—), the specific stereoisomer for which data is provided in Table B1 may be identified by the elution order of such compound as described in the synthetic examples. To illustrate, Compound 2 is the first-eluting enantiomer of step 4 of Example 1 and Compound 3 is the second-eluting enantiomer of step 4 of Example 1. Further, by way of illustration, Compound 27 is the first-eluting enantiomeric mixture in step 4 of Example 7 and Compound 28 is the second-eluting enantiomeric mixture in step 4 of Example 7. […]

In assay [2] the target is T1, APOL1 G2. The assay can be described thus: Rescue of HEK293 cell death caused by overexpression of APOL1 (CellTiter-Glo luminescence), HEK293/T-REx APOL1 G2/clone #2. It counts as cell-based. The note with it: reversal of cell death caused by overexpression of APOL1; geometric mean of at least 2 assay runs, † = single assay run (technical duplicate). How it is done: A HEK293 clonal cell line overexpressing APOL1 G2 (HEK293/T-REx APOL1 G2/clone #2) was maintained in 1×DMEM-GlutaMax (Gibco, 10569-010) media with 10% tetracycline-free FBS (Takara Bio USA, 631101), 5 μg/mL Blasticidin (Gibco, A1113903), and 100 μg/mL Zeocin (Invitrogen, R25001) in T75 flasks. In preparation for the assay, this media was aspirated and 2 mL of prewarmed TrypLE Express (Gibco, 12605-010) was added to a flask to detach cells. The flask was then incubated (humidified, 37° C. with 5% CO2) for 3-5 minutes. Afterwards, 8 mL of prewarmed cell assay media (lx DMEM-GlutaMax media with 10% tetracycline-free FBS) was added to the trypsinized cells. The suspension was gently mixed, and cells were counted using a Countess Cell Counting Chamber (Invitrogen). The suspension was diluted using cell assay media to generate a working stock solution (166,667 cells/mL). Using a MultiDrop Combi (Thermo Electron Corp), 30 μL (final cell density=5,000 cells/well) of the working stock solution was dispensed into each well of white 384-well assay ready plates (Nunc™, 164610) containing 6 ng/mL doxycycline, to induce APOL1 expression, and compound. All compounds were plated in a duplicate 8-point dilution series that consisted of 3-fold stepwise dilutions (0.5% DMSO final). Assay plates were incubated (humidified, 37° C. with 5% CO2) for 17 hours. After the incubation, the plates were equilibrated at room temperature for 1 hour. Next, 15 μl of CellTiter-Glo® reagent (Promega, G7570) was added to each well using a MultiDrop Combi. Plates were placed on an orbital shaker (500 rpm) for 5 minutes to induce cell lysis and then incubated at room temperature for 10 minutes. Luminescence was measured on an Envision plate reader. Collaborative Drug Discovery software was utilized for graphing data. Plots were generated using a four parameter logistic curve fit.
Table B2 below provides the results from this experiment. Unless otherwise specified, EC50 values are reported as the geometric mean of at least 2 assay runs on separate days. Each run represents the average of a technical replicate, where each compound was assayed twice in the same plate. A superscript t symbol indicates a value from the average of a technical replicate from a single assay run, where each compound was assayed twice in the same plate. Compounds in Table B2 are referred to by the corresponding Compound Number in Table 1, which is also referred to in the synthetic examples. When one or more of the numbered compounds are identified by stereochemistry (for example, (R)- or (S)—), the specific stereoisomer for which data is provided in Table B2 may be identified by the elution order of such compound as described in the synthetic examples. To illustrate, Compound 2 is the first-eluting enantiomer of step 4 of Example 1 and Compound 3 is the second-eluting enantiomer of step 4 of Example 1. Further, by way of illustration, Compound 27 is the first-eluting enantiomeric mixture in step 4 of Example 7 and Compound 28 is the second-eluting enantiomeric mixture in step 4 of Example 7. Then, Compound 27 is separated into Compound 29 (the first-eluting enantiomer) and Compound 30 (the second-eluting enantiomer) in Example 8, and Compound 28 is separated into Compound 31 (the first-eluting enantiomer) and Compound 32 (the second-eluting enantiomer) in Example 8. Absolute stereochemistry of such compounds may be identified by methods known in the art.
Rescue EC50 values reported in Table B2 below represent the half-maximal effective concentration for reversal of cell death caused by overexpression of APOL1.
On the technique in general: Cellular ATP, detected with luciferase, serves as a proxy for viable cell number.

Usually AC50 stands for the midpoint of the concentration-response curve, whichever way the signal moves. Broadly, the EC50 is the concentration that produces a half-maximal response. Consider `C[C@@H]1CN(CCc2cc(F)cc(Cl)c2)C[C@H]1COc1ccc(S(C)(=O)=O)cc1` [Compound 181, (3S,4S)-1-[2-(3-chloro-5-fluorophenyl)ethyl]-3-[(4-methanesulfonylphenoxy)methyl]-4-methylpyrrolidine], for which, at APOL1 G2 [1], the AC50 was under 96.1 nM. The EC50 on APOL1 G2 [2] turned out to be 325 nM.

Turning to `C[C@@H]1C[C@H](COc2ccc(S(=O)(=O)CCO)cc2)CN1CCc1cc(Cl)cc(C#N)c1` [Compound 165, 3-chloro-5-{2-[(2R,4S)-4-{[4-(2-hydroxyethanesul-fonyl)phenoxy]meth-yl}-2-methylpyrrolidin-1-yl]ethyl}benzonitrile], the AC50 at APOL1 G2 [1] amounted to 409 nM. Moreover, on APOL1 G2 [2], the EC50 was 30.2 nM.

In the case of `CS(=O)(=O)c1ccc(OCC2CN(CCc3cccc(Cl)c3)CCC2O)cc1` (single isomer, unassigned) [Compound 30, (3R,4R) or (3S,4S) or (3R,4S) or (3S,4R)-1-(3-chlorophenethyl)-3-((4-(methylsulfonyl)phenoxy)methyl)piperidin-4-ol], the AC50 at APOL1 G2 [1] turned out to be 864 nM. Further, the EC50 at APOL1 G2 [2] turned out to be 2410 nM.

Take `CC1CC(COc2ccc(S(C)(=O)=O)cc2)CN1CCc1cccc(Cl)c1` (single isomer, unassigned) [Compound 56, (2R,4R) or (2S,4R) or (2S,4S) or (2R,4S)-1-(3-chlorophenethyl)-2-methyl-4-((4-(methylsulfonyl)phenoxy)methyl)pyrrolidine]: the AC50 at APOL1 G2 [1] came out at 580 nM. Also, the EC50 on APOL1 G2 [2] was found to be 1680 nM.

For the compound `COC(CN1CCC[C@H](COc2ccc(S(C)(=O)=O)cc2)C1)c1cccc(Cl)c1` (single isomer, unassigned) [Compound 24, (S)-1-((S)-2-(3-chlorophenyl)-2-methoxyethyl)-3-((4-(methylsulfonyl)phenoxy)methyl)piperidine or (S)-1-((R)-2-(3-chlorophenyl)-2-methoxyethyl)-3-((4-(methylsulfonyl)phenoxy)methyl)piperidine], on APOL1 G2 [1], the AC50 is 501 nM. Also, the EC50 at APOL1 G2 [2] came out at 334 nM.

`CN(c1ccc(OC[C@H](O)CNC2(Cc3cccc(Cl)c3)CCOC2)cc1)S(C)(=O)=O` (stereo partly drawn) [Compound 92, N-(4-((2R)-3-((3-(3-chlorobenzyl)tetra-hydrofuran-3-yl)amino)-2-hydroxypropoxy)phe-nyl)-N-methylmethanesulfon-amide]: the AC50 on APOL1 G2 [1] worked out at 682 nM. The EC50 at APOL1 G2 [2] is over 9790 nM.

Consider `CN=S(C)(=O)c1ccc(OC[C@@H]2CN(CCc3cc(Cl)cc(C#N)c3)CCN2)cc1` (stereo partly drawn) [Compound 186, 3-chloro-5-{2-[(3S)-3-({4-[methyl(methyl-imino)oxo-λ^6-sulfanyl]pheno-xy}methyl)pipera-zin-1-yl]ethyl}benzo-nitrile], for which the AC50 at APOL1 G2 [1] turned out to be 6980 nM. Moreover, the EC50 at APOL1 G2 [2] worked out at 631 nM.

For the compound `CC(Cc1cccc(Cl)c1)NC[C@@H](O)COc1ccc(N(C)S(C)(=O)=O)cc1` (single isomer, unassigned) [Compound 89, N-(4-((R)-3-(((R) or (S)-1-(3-chlorophenyl)propan-2-yl)amino)-2-hydroxypropoxy)phe-nyl)-N-methylmethanesulfon-amide], the AC50 at APOL1 G2 [1] was 449 nM. The EC50 at APOL1 G2 [2] was found to be 2020 nM.

On to `CS(=O)(=O)c1ccc(OC[C@@H]2CCCN(CC(O)c3cccc(Cl)c3)C2)cc1` (stereo partly drawn) [Compound 20, 1-(3-chlorophenyl)-2-((R)-3-((4-(methylsulfonyl)phenoxy)methyl)piperidin-1-yl)ethanol], for which the AC50 at APOL1 G2 [1] is 1760 nM. Also, the concentration giving a half-maximal response (EC50) on APOL1 G2 [2] turned out to be 1360 nM.

`CS(=O)(=O)c1ccc(OC[C@H](O)CN[C@H]2C[C@H](c3cccc(Cl)c3)C2)cc1` [Compound 67, (R)-1-((trans-3-(3-chlorophenyl)cyclo-butyl)amino)-3-(4-(methylsulfonyl)phe-noxy)propan-2-ol]: the AC50 on APOL1 G2 [1] was found to be 340 nM. In addition, the EC50 at APOL1 G2 [2] is 1350 nM.

`CC(CN1C[C@@H](COc2ccc(S(C)(=O)=O)cc2)[C@H](C)C1)c1cc(Cl)cc(C#N)c1` (stereo partly drawn) [Compound 146, 3-chloro-5-[1-[(3S,4S)-3-[(4-methanesulfon-ylphenoxy)meth-yl]-4-methyl-pyrrolidin-1-yl]-propan-2-yl]-benzonitrile]: on APOL1 G2 [1], the AC50 amounted to 937 nM. The EC50 on APOL1 G2 [2] was determined as 273 nM.
